Assay results as given in paper PMC10728902, “β-L-Arabinofurano-cyclitol Aziridines Are Covalent Broad-Spectrum Inhibitors and Activity-Based Probes for Retaining β-L-Arabinofuranosidases” (ACS Chemical Biology, 2023).
Where two headings read alike, the source gives them in different places.

Experiments:
rBtGH146 = target: T1, rBtGH146 (Bacteroides thetaiotaomicron, UniProt Q8AAW3); assay: inactivation kinetics, residual hydrolysis of 4-nitrophenyl beta-L-arabinofuranoside, A405; format: biochemical
T1 construct: gene BT_0349; recombinant, expressed in E. coli; 92 kDa on gel; produced by published procedures
T1 sequence (Q8AAW3 1-802): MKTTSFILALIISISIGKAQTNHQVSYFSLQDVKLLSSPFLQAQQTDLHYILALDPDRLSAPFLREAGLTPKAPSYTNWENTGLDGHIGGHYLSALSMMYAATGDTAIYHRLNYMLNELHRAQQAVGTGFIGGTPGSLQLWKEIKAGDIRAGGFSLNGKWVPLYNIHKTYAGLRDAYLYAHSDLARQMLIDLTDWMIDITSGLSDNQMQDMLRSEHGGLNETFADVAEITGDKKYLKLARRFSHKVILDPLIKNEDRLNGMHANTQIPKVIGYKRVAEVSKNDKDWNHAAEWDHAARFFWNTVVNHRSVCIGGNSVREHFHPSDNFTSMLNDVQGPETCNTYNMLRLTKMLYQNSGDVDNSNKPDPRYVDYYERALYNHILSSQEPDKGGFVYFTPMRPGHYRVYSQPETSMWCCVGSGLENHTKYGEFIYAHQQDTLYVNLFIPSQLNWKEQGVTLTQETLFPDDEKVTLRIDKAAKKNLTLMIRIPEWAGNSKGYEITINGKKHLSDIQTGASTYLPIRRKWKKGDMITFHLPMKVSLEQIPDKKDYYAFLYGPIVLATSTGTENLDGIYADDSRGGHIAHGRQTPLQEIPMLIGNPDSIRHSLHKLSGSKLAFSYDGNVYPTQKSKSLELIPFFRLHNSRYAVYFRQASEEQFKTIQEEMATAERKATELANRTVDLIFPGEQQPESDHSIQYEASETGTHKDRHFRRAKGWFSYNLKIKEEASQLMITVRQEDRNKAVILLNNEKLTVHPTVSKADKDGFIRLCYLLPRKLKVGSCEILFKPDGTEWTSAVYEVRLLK
Description: inactivation kinetics, residual hydrolysis of 4-nitrophenyl beta-L-arabinofuranoside, A405 on rBtGH146

rHypBA1 = target: T2, rHypBA1 (Bifidobacterium longum, UniProt E8MGH8); assay: as above; format: biochemical
T2 construct: gene hypBA1; recombinant; 74 kDa; produced by published procedures
T2 sequence (E8MGH8 1-658): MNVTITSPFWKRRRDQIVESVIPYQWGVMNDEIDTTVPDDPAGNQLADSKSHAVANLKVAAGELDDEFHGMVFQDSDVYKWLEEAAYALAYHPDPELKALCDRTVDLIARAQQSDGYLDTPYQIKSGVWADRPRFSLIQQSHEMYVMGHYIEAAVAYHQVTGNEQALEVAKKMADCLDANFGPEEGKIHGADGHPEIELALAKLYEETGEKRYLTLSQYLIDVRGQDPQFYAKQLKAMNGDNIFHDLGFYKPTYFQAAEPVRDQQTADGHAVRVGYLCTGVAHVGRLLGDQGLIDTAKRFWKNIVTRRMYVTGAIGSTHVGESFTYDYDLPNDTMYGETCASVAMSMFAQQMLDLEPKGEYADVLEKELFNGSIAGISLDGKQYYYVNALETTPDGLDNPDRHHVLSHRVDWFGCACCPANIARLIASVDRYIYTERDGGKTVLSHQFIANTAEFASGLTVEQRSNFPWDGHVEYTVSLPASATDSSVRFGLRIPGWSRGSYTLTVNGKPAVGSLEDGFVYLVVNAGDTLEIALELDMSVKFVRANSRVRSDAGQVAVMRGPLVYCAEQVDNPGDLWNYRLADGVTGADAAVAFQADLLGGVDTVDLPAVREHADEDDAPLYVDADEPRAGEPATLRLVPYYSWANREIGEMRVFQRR
Description: inactivation kinetics, residual hydrolysis of 4-nitrophenyl beta-L-arabinofuranoside, A405 on rHypBA1

[1] = read-out: rBtGH146 / KI, covalent, time-dependent, pH 7.5 HEPES, 200 mM NaCl, 1 mM DTT, 37 °C

| Structure (SMILES) | KI (inactivation) (rBtGH146; covalent, time-dependent, pH 7.5 HEPES, 200 mM NaCl, 1 mM DTT, 37 °C, read-out: rBtGH146 / KI) [µM] | kinact/KI (rHypBA1) [M⁻¹ s⁻¹] | KI (inactivation) (rBtGH146; [1]) [µM] | KI (inactivation) (rHypBA1; read-out: rHypBA1 / KI, covalent, time-dependent, pH 4.5 acetate, 1 mM DTT, 37 °C) [µM] |
| --- | --- | --- | --- | --- |
| OC[C@H]1[C@H](O)[C@@H](O)[C@H]2N[C@@H]12 [compound 2, β-L-arabinofuranosyl cyclophellitol aziridine] | 350 ± 40 | > 4200 | – | – |
| CN1C(=CC=CC=CC2=[N+](CCCCCC(=O)NCCCCCCCCOC[C@H]3[C@H](O)[C@@H](O)[C@H]4O[C@@H]34)c3ccccc3C2(C)C)C(C)(C)c2ccccc21 [compound 4, Cy5-tagged epoxide ABP 4] | – | < 0.1 | 140 ± 10 | – |
| NCCCCCCCCN1[C@@H]2[C@H](O)[C@@H](O)[C@H](CO)[C@@H]21 (stereo partly drawn) [compound 7, aziridine 7] | – | – | 190 ± 20 | 280 ± 90 |
